# Results from patent US20150253330A1, “PRE-SELECTION OF SUBJECTS FOR THERAPEUTIC TREATMENT WITH AN HSP90 INHIBITOR BASED ON HYPOXIC STATUS” (Synta Pharmaceuticals Corp., priority 2012, published 2015).
# “Also recorded” adds a separate entry of the source.
# What was measured:
# advanced NSCLC = assay: Phase 2 clinical trial in NSCLC by KRAS, EGFR and ALK mutation status; type: in vivo, human
# Experimental: Patients with advanced NSCLC who failed prior treatments received 200 mg/m^2 of ganetespib as a 1-hr infusion once weekly for 3 of a 4-wk cycle in a Simon two-stage study design assessing primary endpoint of PFS rate at 16 wks. Initial cohorts were defined by mutation status: A) EGFR mutation, KRAS wild-type B) EGFR wild-type, KRAS mutation C) EGFR wild-type, KRAS wild-type (WT). If ≧2/14 patients in A, B or C were progression-free at 16 weeks, enrollment increased to 23 patients for that cohort. Tumor response was assessed every 8 weeks. Cohort D was added to include 35 additional EGFR wild-type and KRAS wild-type patients with adenocarcinoma histology. FISH analysis for ALK translocation, was performed for Cohorts C and D.
# [1] = system: BT-474 breast cancer cells grown as mammospheres; assay: Viability of mammospheres in Matrigel, 72 hr, AlamarBlue; type: cell-based; details: Homo sapiens, BT-474 mammospheres in Matrigel
# Experimental: The cells were treated for 72 hr and analyzed by microscopy. IC50 was determined by AlamarBlue®.
# BT-474 HER2+ luminal cells were cultured as mammospheres in Matrigel® and exposed to ganetespib for 72 hr.
# GT3TKB = assay: 72 hr viability by Syto60, gastric cell line; type: cell-based; details: Syto60 (lower), read-out: ganetespib IC50
# [2] = system: Detroit 562 H/N cancer cells; assay: Single agent viability assay, 72 hr, head and neck cancer cells; type: cell-based
# Excerpt: (§1) Head and neck (H/N) cancer refers to a group of biologically similar cancers originating from the upper autodigestive tract. First line therapies include EGFR inhibitors and platins. Modulation of EGFR and other client proteins by ganetespib was investigated in Detroit 562 H/N cancer cells.
# [3] = system: EGFR and other client proteins; assay: Western blot of Hsp90 client proteins in Detroit 562 cells, 24 hr; type: cell-based; details: Detroit 562, 24 hr
# Excerpt: as §1
# [4] = system: Chk1 and Chk2 phosphorylation; assay: Western blot of Chk1 and Chk2 phosphorylation after bleomycin in Detroit 562 cells; type: cell-based; details: Detroit 562, 100 nM ganetespib 24 hours prior to bleomycin (5 μM)
# Experimental: Protein expression was measured at the indicated time points after bleomycin treatment.
# Cell extracts from Detroit 562 head and neck cancer cells were treated with 100 nM of ganetespib 24 hours prior to receiving the DNA damaging agent bleomycin (5 μM). Protein expression was measured at the indicated time points after bleomycin treatment.
# [5] = system: KRAS mutant NSCLC cell lines; assay: Combinatorial viability analysis in KRAS mutant NSCLC cell lines; type: cell-based
# Experimental: For combinatorial analysis, cells were seeded in 96-well plates at a predetermined, optimum growth density for 24 h prior to the addition of drug or vehicle to the culture medium. Drug combinations were applied at a non-constant ratio over a range of concentrations for 72 or 96 hours. […] Cell viability was assessed by either AlamarBlue® (Invitrogen, Carlsbad, Calif.) or CellTiter-Glo® assays and normalized to vehicle controls. For each combination study, the level of growth inhibition (fraction affected) is plotted relative to vehicle control. Data are presented as one relevant combination point and the corresponding single agent data for each cell line tested.
# [6] = system: KRAS substrates, including BRAF and CRAF; assay: KRAS substrates at the molecular level in KRAS mutant NSCLC cells; type: cell-based
# [7] = system: Mia-PaCa2, HPAC and PANC-1 cells; assay: Proliferation of pancreatic cancer cell lines, 24 hours (confirmed by XTT assay); type: cell-based; details: p<0.001, one way ANOVA
# Experimental: Mia-PaCa2, PANC-1, HPAC and ASPC-1 cell lines (ATCC, Manassas, Va.) were cultured according to the ATCC manual. Medium was supplemented with 10% fetal bovine serum (Invitrogen Corporation, Carlsbad, Calif.), 50 units/ml penicillin, and 50 μg/ml streptomycin (Life Technologies, Inc., Frederick, Md.). Cells were incubated at 37° C. in a humidified 5% CO2 atmosphere.
# HIF-1α and VEGF = assay: Western blot of HIF-1α and VEGF in pancreatic cancer cell lines; type: cell-based; details: 50 nM, 24 h
# Experimental: It's postulated that functional inhibition of Hsp90 by ganetespib can inhibit angiogenesis and growth in vitro and in vivo models of pancreatic cancer. PANC-1 and HPAC cell lines were treated with vehicle or G (50 nM) for 24 h and lysates were analyzed by Western blot. Egg CAM and matrigel plug assays were performed to quantify the effects of ganetespib on angiogenesis. Efficacy of ganetespib (100 mg/kg) was assessed in mice bearing HPAC and ASPC-1 xenograft.
# Primary antibodies specific to Hsp90, HIF-1α, VEGF, Actin and HRP conjugated secondary antibodies (Santa Cruz Biotechnology, California and Cell Signaling Technology, USA) were used for Western blot. Ganetespib was provided by Synta Pharmaceuticals, Lexington, Mass. and Matrigel was purchased from BD Biosciences.
# Cells were harvested at the end of treatment and lysed in the RIPA protein extraction buffer (Sigma-Aldrich, Saint Louis, Mo., USA) containing the protease inhibitor cocktail. Equal amounts of protein fractions of lysates were resolved over SDS-PAGE and transferred on to PVDF membrane. Membranes were incubated with primary antibodies followed by HRP-conjugated secondary antibodies. Bound antibodies were visualized using enhanced chemiluminescence. To confirm equal loading, membranes were verified and re-probed with an antibody specific for the housekeeping gene, anti-β-actin.
# [8] = Cohort C: EGFR wild-type, KRAS wild-type
structure (smiles),measurement,setting,value
CC(C)c1cc(-c2nnc(O)n2-c2ccc3c(ccn3C)c2)c(O)cc1O [ganetespib],Adverse events reported in ≧20% of patients,"advanced NSCLC; 200 mg/m^2 once weekly for 3 of a 4-wk cycle, generally grade 1-2","diarrhea, fatigue, nausea, anorexia, constipation, and dyspnea"
same,Objective response rate (CR+PR),"advanced NSCLC; ALK+ patients, 4/8",50%
same,Disease control rate,"advanced NSCLC; ALK+ patients, 7/8",88%
same,Patients with prolonged stable disease (≧16 weeks),advanced NSCLC; [8],seven
same,Response in cohort C,advanced NSCLC; [8],durable partial response (PR)
same,ALK+ patients with tumor shrinkage in target lesions,advanced NSCLC; eight ALK+ patients of cohorts C and D (six of eight),75%
same,Tolerability,"advanced NSCLC; single agent 200 mg/m^2 once weekly, without severe liver, ocular, cardiovascular or renal toxicity",well-tolerated
same,IC50,[1],20 nM
same,IC50,GT3TKB,6 nM
same,Cell viability after a 72 hr exposure,[2]; Detroit 562,A fraction of cells remained viable
same,IC50,"[2]; Homo sapiens, Detroit 562, single agent viability, 72 hr",42 nM
same,Modulation of EGFR and other client proteins,[3],depletion of EGFR and JAK2
same,Bleomycin-induced Chk1 and Chk2 phosphorylation,[4],blocked
same,Increase in cell death versus monotherapy,[5]; ganetespib combined with alkylating agents,≤ 61%
same,Increase in cell death versus monotherapy,[5]; ganetespib combined with anti-mitotics,up to 44%
same,Increase in cell death versus monotherapy,[5]; ganetespib combined with topoisomerase inhibitors,≤ 26%
same,Greater activity than monotherapy,[5]; low dose of ganetespib combined with MEK inhibitors,up to 77%
same,Greater activity than monotherapy,[5]; low dose of ganetespib combined with PI3K/mTOR inhibitors,≤ 42%
same,Effect on KRAS substrates,[6],"induced the destabilization of several KRAS substrates, including BRAF and CRAF"
same,"Proliferation of Mia-PaCa2, HPAC and PANC-1 cells",[7],decreases proliferation
same,HIF-1α and VEGF protein levels,HIF-1α and VEGF,decreased HIF-1α a and VEGF expression; also recorded: decreased levels
